This is an account of results in patent US4291036A, “Pyrido[1,2-A]pyrimidine derivatives and method of analgesic treatment” (priority 1977, dated 1981).

Structures can show the parent of a compound that is named as a salt. Where two headings read alike, the source gives them in different places. Where only a bound is given, the exact number is not on record here.

Data set [1] is described as follows: Hot plate test (analgesia). The class given is in vivo, rats. The following applies: for ED50: Rattus norvegicus. How it is done: (§1) The analgesic effect was tested on the hot-plate and algolytic tests.
Hot plate test: Woolfe and McDonald J. Pharm. 80, 300 (1944) modified by Porszasz and Herr: Kiserletes Orvostudomany 2, 292 (1950).
A general note: Hot-plate and tail-flick tests time the reaction to a heat stimulus.

Data set [2] in a line: Toxicity (LD50; Litchfield and Wilcoxon). The conditions noted are these: in vivo. The source says:
Toxicity: Litchfield J. T. and Wilcoxon: J. Pharmacol. Sci 54 (1965) 888.

For data set [3] the following is noted: rat, in vivo.
Data set [4] is described as follows: Inhibition of the CNS effects of Probon. The conditions noted are these: in vivo.
Data set [5] is described as follows: Analgesic potency compared with Probon, dog. The class given is in vivo.
For data set [6] the following is noted: dog, in vivo. From the text:
Beagles are much more sensitive to CNS effects than rats, Rhesus monkeys and man.

The nature of data set [7]: Analgesic potency compared with Probon, rat. The class given is in vivo.
The nature of data set [8]: Algolytic test (analgesia). The class given is in vivo. The following applies: for Algolytic test ED100: p.o. On the procedure: as §1
Algolytic test: J. Knoll et. al: Animal and Clinical Pharmacological Techniques in Drug Evaluation Eds. Siegler, P. E. and Meyer J. II. Year Book Medical Pub. Chicago (1967) pages 305-321.

For data set [9] the following is noted: s.c.; Knoll et al. 1971; cited from earlier work.
The conditions of data set [10]: s.c.; Knoll et al. 1971; cited from earlier work. The source holds these as a separate data set.
Where [11] appears, read: po, Table IV, rats, p.o., read-out: Hot plate test ED50 p.o.
Where [12] appears, read: Table I, route not given, read-out: LD50.
The mark [13] stands for this setting: Table IV, rats, i.v., read-out: LD50 rats i.v.
[14] abbreviates: po, Table IV, rats, p.o., read-out: LD50 rats p.o.
Where [15] appears, read: sc, Table IV, rats, s.c., read-out: Hot plate test ED50 s.c.
The mark [16] stands for this setting: sc, Table IV, rats, s.c., read-out: LD50 rats s.c.
[17] abbreviates: iv, Table IV, rats, i.v., read-out: Hot plate test ED50 i.v.
Where [18] appears, read: po, Table II, p.o., read-out: Hot plate test ED50.
[19] abbreviates: po, Table III, p.o., read-out: ED50 hot-plate p.o.
Where [20] appears, read: sc, Table III, s.c., read-out: ED50 hot-plate s.c.
Where [21] appears, read: iv, Table III, i.v., read-out: LD50 i.v.
Setting [22] is: po, Table III, p.o., read-out: LD50 p.o.
The mark [23] stands for this setting: sc, Table III, s.c., read-out: LD50 s.c.
Where [24] appears, read: iv, Table III, i.v., read-out: ED50 hot-plate i.v.

`Cc1nc2cccc(C)n2c(=O)c1C.Cl` [2,3,6-trimethyl-4-oxo-4H-pyrido[1,2-a]pyrimidine hydrochloride]: the ED50 in data set [1] (setting [11]) is 87 mg/kg. For the same compound, the LD50 in [2] (setting [12]) is 780 µmol/kg; in [2] (setting [13]) it was 175 mg/kg.
For `CCc1c(C)nc2cccc(C)n2c1=O` [2,6-dimethyl-3-ethyl-4-oxo-4H-pyrido[1,2-a]pyrimidine], the CNS symptoms result in data set [3] and in data set [6] was “failing to elicit the CNS symptoms” in each case. The “inhibition of the CNS effects of Probon” value in data set [4] is “strongly inhibit the CNS effects of Probon”. The “analgesic potency compared with Probon” value in [5] and in [7] was “more potent analgesic than Probon” each time.
Turning to `CCCCc1c(C)nc2cccc(C)n2c1=O.Cl` [2,6-dimethyl-3-n-butyl-4-oxo-4H-pyrido[1,2-a]pyrimidine hydrochloride], in [1] (setting [11]), the 50% effective dose (ED50) came out at 340 mg/kg. The LD50 in [2] (setting [14]) amounted to 1100 mg/kg.
Take `CCCc1c(C)nc2cccc(C)n2c1=O.Cl` [2,6-dimethyl-3-n-propyl-4-oxo-4H-pyrido[1,2-a]pyrimidine hydrochloride]: in data set [1] (setting [15]), the ED50 was 48 mg/kg. The LD50 in [2] (setting [14]) is 1000 mg/kg; in data set [2] (setting [16]), 1200 mg/kg; in [2] (setting [12]), 316 µmol/kg.
Regarding `CCc1c(C)nc2ccc(C)cn2c1=O` [2,7-dimethyl-3-ethyl-4-oxo-4H-pyrido[1,2-a]pyrimidine . HCl], the figures for the ED50 in [1] (setting [17]), in [1] (setting [11]) and in [1] (setting [15]) were 75 mg/kg, 500 mg/kg and 150 mg/kg, respectively. In addition, the results for the median lethal dose (LD50) in data set [2] (setting [14]), in data set [2] (setting [16]) and in data set [2] (setting [13]) were 900 mg/kg, 800 mg/kg and 175 mg/kg, respectively.
With `CCc1c(C)nc2c(C)cccn2c1=O.Cl` [2,9-dimethyl-3-ethyl-4-oxo-4H-pyrido[1,2-a]pyrimidine HCl], the ED50 in data set [1] (setting [11]) came to 310 mg/kg. Besides, the 50% lethal dose (LD50) in data set [2] (setting [14]) turned out to be 820 mg/kg.
Take `CCc1c(C)nc2ccc(Cl)cn2c1=O.Cl` [2-methyl-3-ethyl-7-chloro-4-oxo-4H-pyrido[1,2-a]pyrimidine hydrochloride]: in data set [1] (setting [11]), the ED50 amounted to 98 mg/kg. Moreover, in data set [2] (setting [14]), the LD50 is 1100 mg/kg.
Turning to `CCCCc1c(C)nc2ccccn2c1=O` [2-methyl-3-n-butyl-4-oxo-4H-pyrido[1,2-a]pyrimidine . HCl], the ED50 in [1] (setting [11]) stood at 251 mg/kg. Also, the LD50 in data set [2] (setting [14]) was determined as 1100 mg/kg.
Regarding `CCCc1c(C)nc2ccccn2c1=O.Cl` [2-methyl-3-n-propyl-4-oxo-4H-pyrido[1,2-a]pyrimidine hydrochloride], in data set [2] (setting [12]), the median lethal dose (LD50) was 502 µmol/kg.
Turning to `CCc1nc2cccc(C)n2c(=O)c1C.Cl` [3,6-dimethyl-2-ethyl-4-oxo-4H-pyrido[1,2-a]pyrimidine hydrochloride], the LD50 in data set [2] (setting [12]) was 120 µmol/kg.
In the case of `CCc1c(C)nc2cccc(C)n2c1=O.Cl` [Compound A, 2,6-dimethyl-3-ethyl-4-oxo-4H-pyrido[1,2-a]pyrimidine hydrochloride], the ED50 in data set [1] (setting [18]) is 68 mg/kg; in data set [1] (setting [19]), 68 mg/kg; in data set [1] (setting [11]), 68 mg/kg; in data set [1] (setting [20]), 74 mg/kg; in data set [1] (setting [15]), 74 mg/kg; in data set [8] (sc) it was 98 mg/kg. Also, in data set [1] (Table III, p.o., hydrochloride), the ED50 hot-plate p.o. was determined as 58 mg/kg. The LD50 in data set [2] (setting [21]) came to 190 mg/kg; in data set [2] (setting [22]) it was 690 mg/kg; in [2] (setting [23]), 520 mg/kg; in data set [2] (setting [12]) it was 796 µmol/kg. The “algolytic (+5mg./kg morphine), result in words” value in data set [8] (Table III) is “effective per se”. The “ED50 algolytic (+5mg./kg morphine)” value in data set [8] (Table III, s.c.) worked out at 8.6 mg/kg. In addition, the ED100 in [8] (po, Table II) came to 420 mg/kg.
Regarding `CCc1c(C)nc2ccccn2c1=O` [Compound B, 2-methyl-3-ethyl-4-oxo-4H-pyrido[1,2-a]pyrimidine.HCl], the median effective dose (ED50) in [1] (setting [24]) is 100 mg/kg; in data set [1] (setting [17]), 100 mg/kg; in data set [1] (setting [18]), 330 mg/kg; in data set [1] (setting [19]), 300 mg/kg; in data set [1] (setting [11]) it was 300 mg/kg; in [1] (setting [20]), 180 mg/kg. The ED50 in data set [1] (setting [15]) was 180 mg/kg. The median lethal dose (LD50) was 280 mg/kg in data set [2] (setting [21]), 1000 mg/kg in [2] (setting [22]), 620 mg/kg in [2] (setting [23]) and 1070 µmol/kg in data set [2] (setting [12]). Also, in [8] (Table II), the “Algolytic test ED100” value is recorded as “cannot be achieved”. Also, the “ED50 algolytic (+5mg./kg morphine)” value in data set [8] (Table III, i.v.) came out at 2.75 mg/kg.
For `CCc1c(C)nc2cc(C)cc(C)n2c1=O` [Compound C, 2,6,8-trimethyl-3-ethyl-4-oxo-4H-pyrido[1,2-a]pyrimidine.HCl], the ED50 turned out to be 49 mg/kg in [1] (setting [24]); 49 mg/kg in data set [1] (setting [17]); 580 mg/kg in [1] (setting [18]); 580 mg/kg in data set [1] (setting [19]); 580 mg/kg in data set [1] (setting [11]); 120 mg/kg in [1] (setting [20]). Besides, the median effective dose (ED50) in [1] (setting [15]) was determined as 120 mg/kg. Moreover, the results for the LD50 in data set [2] (setting [21]), in [2] (setting [22]) and in data set [2] (setting [23]) were 120 mg/kg, 1500 mg/kg and 820 mg/kg, respectively. Also, the “Algolytic test ED100” value in data set [8] (Table II) is on record as “cannot be achieved”.
Consider `CCOC(=O)c1c[n+](C)c2n(c1=O)C(C)CCC2` (stereo not shown) [Probon, 1,6-dimethyl-3-ethoxycarbonyl-4-oxo-4H-6,7,8,9-tetrahydro-pyrido[1,2-a]pyrimidinium-methosulfate, reference compound], for which the 50% effective dose (ED50) in [1] (setting [17]) is 50 mg/kg; in data set [1] (setting [11]), 220 mg/kg. Moreover, the LD50 in [2] (iv, read-out: LD50 rats i.v.) was 220 mg/kg; in data set [2] (po, read-out: LD50 rats p.o.) it was 1600 mg/kg; in [2] (read-out: LD50) it was 607 µmol/kg. Also, in data set [6] (po), the “dose causing death of the animal” value stood at 300 mg/kg. Moreover, the “oral dose at which disturbances of coordination and behavior, ataxia appear” value in [6] (po) is recorded as “above 100 mg./kg. body weight”. For the same compound, the “oral dose level at which CNS symptoms are very marked” value in data set [6] (po) lay within 150 to 200 mg/kg. Also, the “dose eliciting characteristic desynchronization of the EEG” value in data set [9] is not below 250 mg/kg. Also, in data set [10], the “dose causing inhibition of the conditioned reflex” value is not below 250 mg/kg.

What is called ED50 is the dose that gives a 50% effect, or the effect in half of the subjects. As usually defined, the LD50 is the dose at which mortality reaches 50%.
